The values that follow come from a melting point compilation (Tetko et al.).

The structures appear in SMILES notation.

As a reminder, the melting point is the temperature, or range, at which the solid turns liquid. Compound `ClC(C(Cl)(Cl)Cl)C(Cl)(Cl)Cl` registered a melting point of 11 °C.

`N#CSCC(=O)c1ccc(Cl)cc1` registered a melting point of 135 to 136 °C.

Take `CC(C)CCCCCCCCCCCO`: the melting point was 10.5 °C.

With `FC(F)=C(F)F`, the melting point was -142 °C.

Turning to `CCOC(=O)/C(=N\Nc1ccc(Cl)cc1)C(=O)C(F)(F)F`, the melting point was 75 to 76 °C.

The compound `Oc1ccccc1Cc1ccccc1` yielded a melting point of 52 °C.

In the case of `O=C(Cl)c1cccc(Cl)c1Cl`, the melting point amounted to 30 °C.

For the compound `CC1CCCC(C)(C)C1` (centres undefined), the melting point is -65.7 °C.

As to `O=Cc1ccc(Sc2ccccn2)o1`, the melting point lay within 65 to 67 °C.

Turning to `COc1ccnc(-c2cc(OC)ccn2)c1`, the melting point fell in the range of 169 to 174 °C.

Consider `CC1=C(O)C(=O)C(C)O1` (centres undefined), for which the melting point amounted to 80.5 °C.

The compound `CC(C)(C)OC(=O)N1CCC(Oc2ccc(C(=O)O)cc2)CC1` displayed a melting point of 175 to 177 °C.

As for `CC(=O)c1ccc(C#N)c(S)n1`, the melting point worked out at 210 °C.

With `CCOC(=O)C(=O)C(C#N)C(=O)OCC` (centres undefined), the melting point was 88 to 90 °C.

For `Cc1ccc(S(=O)(=O)OC2CCC3(C)C(CCC4C5CCC(=O)C5(C)CCC43)C2)cc1` (centres undefined), the melting point fell in the range of 164 to 166 °C.

`CC(C)(C)NCC(O)COc1cccc2c1CC(O)C(O)C2` (centres undefined) returned a melting point of 124 °C.

Take `Cc1ccc(C(c2ccc(C)o2)c2cc(Br)cc(C)c2O)o1`: the melting point fell in the range of 198 to 199 °C.

`Sc1nnc(-c2cc(Cl)nc(Cl)c2)o1` displayed a melting point of 205 to 206 °C.

In the case of `CC(=O)c1c(C(C)C)cc(C(C)C)cc1C(C)C`, the melting point is 87 °C.

Consider `COc1ccc2c(c1)CC(c1ccc([N+](=O)[O-])cc1)OC2=O` (centres undefined), for which the melting point worked out at 176 °C.

On to `CC(C(=O)O)c1ccc(C(=O)c2cccs2)cc1` (centres undefined), for which the melting point was 124 °C.

The compound `COc1ccc2nsnc2c1` had a melting point of 82 to 83 °C.

As to `OCc1ccccc1CN1CCOCC1`, the melting point was determined as 59 °C.

Compound `Cc1cc(C)c(CS)c(C)c1CS` registered a melting point of 65 to 66 °C.

With `O=C(O)CF`, the melting point turned out to be 35.2 °C.

On to `NS(=O)(=O)c1cc(S(=O)(=O)c2cccc(O)c2)cs1`, for which the melting point turned out to be 145 °C.

`C=CCC1(C(C)CC)C(=O)NC(=O)NC1=O` (centres undefined) showed a melting point of 109 °C.

`CN1C(=O)C(O)N=C(c2ccccc2Cl)c2cc(Cl)ccc21` (centres undefined) had a melting point of 206 °C.

On to `COc1ccc(-c2ccccc2)cc1N`, for which the melting point fell in the range of 81 to 84 °C.

The compound `CCOC(=O)C1=C(N)CCCC1` showed a melting point of 70 to 74 °C.

In turn, `CCCC(=O)c1ccccc1` displayed a melting point of 12 °C.

The compound `FC(F)(F)c1ccc(P(c2ccc(C(F)(F)F)cc2)c2ccc(C(F)(F)F)cc2)cc1` showed a melting point of 72 to 75 °C.

As for `CCCCCCCCCCCCCCCCCCCCCCCCO`, the melting point was in the range of 75 to 77 °C.

In the case of `CC(C)(C)OC(=O)NCCCC[C@H](NC(=O)OCC1c2ccccc2-c2ccccc21)C(=O)O`, the melting point was in the range of 134 to 137 °C.

Take `Cc1cccc2cccc(C)c12`: the melting point was determined as 65 °C.

For `O=[N+]([O-])c1cccc(-c2nnc3n2NCS3)c1`, the melting point worked out at 200 °C.

Consider `COc1ccc(NN=C2C(=O)NC(=O)NC2=O)cc1`, for which the melting point turned out to be 264 °C.

Consider `OC(c1ccccc1)(c1ccccc1)C(O)(c1ccccc1)c1ccccc1`, for which the melting point was in the range of 184 to 186 °C.

The compound `OC1CCCCC1Cl` (centres undefined) displayed a melting point of 29 °C.

In the case of `O=S(=O)(n1ccnc1)C(F)(F)F`, the melting point lay within 19 to 21 °C.

`O=[N+]([O-])c1cccc(C2OCCO2)c1` returned a melting point of 54 °C.

Take `N#Cc1ccnc(Cl)c1`: the melting point lay within 71 to 72 °C.

For the compound `CC(=O)/C=C(\C)c1ccc(-c2ccccc2)cc1`, the melting point was 132 to 134 °C.

`CN(C)CC(O)c1ccc(O)c(O)c1` (centres undefined) yielded a melting point of 149 °C.

`Cc1onc(-c2ccccc2)c1N=C=O` displayed a melting point of 39 to 40 °C.

`c1cc2c3c(cccc3c1)-c1nccnc1-2` returned a melting point of 146 °C.

In the case of `CC(C)(C)OC(=O)n1cc(CBr)c2ccccc21`, the melting point came out at 106 °C.

`c1cc2cc3ccc4c(c3nc2c2c1NCOC2)COCN4` registered a melting point of 235 °C.

Take `CCN(C(=O)n1nnn(-c2ccccc2Cl)c1=O)C1CCCCC1`: the melting point amounted to 79 °C.

Compound `NC(CCN(Cc1ccco1)S(=O)(=O)c1ccc(Cl)cc1)=NO` returned a melting point of 115 to 117 °C.

With `Clc1ccc(C(Cl)(Cl)Cl)cc1Cl`, the melting point came to 25.8 °C.

`CCCCCCCCCCOc1ccc(C=O)cc1OCCCCCCCCCC`: the melting point lay in the range of 61 to 66 °C.

In turn, `Cc1nc(-c2ccc(C(=O)Cl)cc2)cs1` showed a melting point of 120 to 122 °C.

In turn, `COc1ccccc1NC(C)=O` came in with a melting point of 87.5 °C.

In turn, `CCCCCCCCCC(=O)OC` registered a melting point of -18 °C.

Compound `CC1CCC(C(C)C)C(OC(=O)C(C(=O)c2ccccc2)C(=O)c2ccccc2)C1` (centres undefined) showed a melting point of 138 °C.

With `Cc1cccc(Cl)c1C#N`, the melting point is 81 °C.

The compound `CCOCCOCCOC(C)=O` had a melting point of -25 °C.

`COc1ccc2cc(Nc3ccc4c(c3)OCCO4)ccc2c1` displayed a melting point of 102 °C.

`NC(=S)c1ccc(F)cc1` gave a melting point of 150 °C.

In the case of `Nc1cccc([N+](=O)[O-])c1[N+](=O)[O-]`, the melting point is 122 °C.

`Oc1cccc(F)c1F`: the melting point stood at 36 °C.

`CC12CCC(C(=O)Cl)(OC1=O)C2(C)C` (centres undefined) yielded a melting point of 66 °C.

As for `CC(CN1c2ccccc2Sc2ccccc21)N(C)C` (centres undefined), the melting point was found to be 60 °C.

As to `CCS(=O)(=O)CCO`, the melting point is 46 °C.

On to `CC1NC(C(=O)O)CS1` (mixture of isomers), for which the melting point fell in the range of 180 to 185 °C.

`CCC(C)(C)S` yielded a melting point of -104 °C.

`COc1ccc(C=O)cn1`: the melting point was 46 to 54 °C.

Consider `C#CCON1C(=O)c2ccccc2C1=O`, for which the melting point fell in the range of 149 to 152 °C.

For `Nc1cccc(C(=O)O)c1O`, the melting point worked out at 240 °C.

On to `COc1cc(-c2nnc3n2N=C(C(C)C)CS3)cc(OC)c1OC`, for which the melting point was determined as 157 °C.

Take `COc1ccccc1-c1ccc(/C=C2\N=C(c3ccccc3)OC2=O)o1`: the melting point stood at 170 °C.

On to `CC1CSC(C=Cc2ccccc2[N+](=O)[O-])S1` (centres undefined), for which the melting point was 70 °C.

The compound `COc1ccccc1N1CCN(CCCC(=O)c2ccc(F)cc2)CC1` showed a melting point of 67.5 °C.

`CC(C)=CCCC(C)=CCCC(C)=CCO` yielded a melting point of 25 °C.

`O=C1c2ccccc2C(=O)N1O` returned a melting point of 233 to 235 °C.

For the compound `Nc1cccnc1N`, the melting point was in the range of 114 to 116 °C.

In turn, `CC(=O)c1c(C)n(O)c2ccc3nonc3c12` returned a melting point of 301 to 303 °C.

As to `N#CC=C(Cl)C#N`, the melting point was 60.5 °C.

In turn, `c1ccc(-c2cccc(-c3ccccc3)n2)cc1` gave a melting point of 78 °C.

`Cc1csc(=S)n1O` gave a melting point of 88 to 93 °C.

As to `O=C(CSc1nc(=O)[nH]c2c1CCCC2)c1ccccc1`, the melting point is 250 to 255 °C.

Take `Cc1ccc(/N=N/c2c(N)nn3c(C(F)(F)F)cc(C)nc23)c(C)c1`: the melting point was determined as 220 °C.

Compound `Cc1ccnc(Cl)c1N` came in with a melting point of 66 °C.

Consider `C#Cc1ccc(OC)cc1`, for which the melting point is 28 to 30 °C.

As to `O=C(O)C(O)(C(F)(F)F)C(F)(F)F`, the melting point is 81 °C.

Compound `COC(=O)c1ccc(-c2ccccc2)nc1` registered a melting point of 110 °C.

On to `Cc1ccn2nc(S(=O)(=O)Nc3c(F)cccc3F)nc2n1`, for which the melting point was determined as 252 °C.

In turn, `CCCCCCN1CCCC1=O` yielded a melting point of 4 °C.

In turn, `CCOC(=O)CCCCCCCCCCCCCCCCC(=O)OCC` displayed a melting point of 54.5 °C.

On to `FC(F)(F)c1ccc(Cl)c(C(F)(F)F)c1`, for which the melting point is -59 °C.

Compound `O=C1NCCO1` came in with a melting point of 87 °C.

Turning to `O=Cc1ccc(Oc2ccccn2)cc1`, the melting point was 45 to 46 °C.

Compound `CCC1(C)CC(=O)NC(=O)C1` came in with a melting point of 126 °C.

Take `O=C(O)c1ccc(-c2cccnc2)cc1`: the melting point was in the range of 271 to 274 °C.

Turning to `COc1ccc(C(=O)C=Cc2ccc(-c3ccccc3[N+](=O)[O-])o2)cc1OC`, the melting point is 119 to 120 °C.

`NC(=O)C1=CNCCC1` displayed a melting point of 203 to 205 °C.

As to `N#C/C(=C\c1ccc(Cl)cc1Cl)c1nc2ccccc2[nH]1`, the melting point was 249 °C.

In the case of `Clc1cc(Cl)c2c(c1)oc1cc(Cl)cc(Cl)c12`, the melting point was determined as 207 °C.

Compound `NC(CCS(=O)(=O)O)C(=O)O` (racemic) yielded a melting point of 273 °C.

For `O=C1C(=C2c3ccccc3C(=O)C2c2cc(Cl)c([N+](=O)[O-])cc2[N+](=O)[O-])C(=O)c2ccccc21` (centres undefined), the melting point was found to be 218 °C.

In turn, `OCCCC#CC#CCCCO` came in with a melting point of 45.5 to 47 °C.

`CN(C)C(=O)C(CCN1CCC(O)(c2ccc(Cl)cc2)CC1)(c1ccccc1)c1ccccc1`: the melting point was determined as 228 °C.

`CC(C)NCC1CCc2cc(CO)c([N+](=O)[O-])cc2N1` (centres undefined): the melting point was determined as 148 °C.

Consider `O=C(O)C1OC(C(=O)O)C(C(=O)O)C1C(=O)O` (centres undefined), for which the melting point lay within 205 to 210 °C.

As for `O=C(O)C1Cc2ccccc2N1C(=O)OCc1ccccc1` (centres undefined), the melting point lay in the range of 103 to 105 °C.

In the case of `O=C(O)c1cc2ccsc2s1`, the melting point was 236 °C.

In turn, `N#CCC(=O)c1ccc(OC(F)(F)F)cc1` yielded a melting point of 82 to 84 °C.

As for `CCCS(=O)(=O)CCC`, the melting point worked out at 29.5 °C.

With `CO[C@@H](C)C(N)=O`, the melting point was in the range of 80 to 84 °C.

The compound `COC(=O)C(Cc1ccc(O)cc1)NC(=O)OC(C)(C)C` (centres undefined) registered a melting point of 107 °C.

Take `c1coc(C2CNCCN2)c1` (centres undefined): the melting point amounted to 87 °C.

Take `COC(=O)C1(S(=O)(=O)c2ccccc2)CCC1`: the melting point worked out at 108 °C.

`CC(C)(SC(=O)N1CCCCC1)c1ccccc1` yielded a melting point of 39.1 °C.
